Test results as given in patent US7803381B2, “Retro-inverso gonadotropin-releasing hormone peptide and vaccine composition” (Shimoda Biotech (Pty) Ltd., priority 2002, dated 2010).
Where “and” joins values, the source holds several entries; their conditions need not be identical. Equal values may be shown once. Entries after “also recorded” stand apart in the source; their conditions may differ. One block for each molecule: values may come before it. Non-standard residues stand in square brackets, D forms with d. Residues, ends and D or L forms follow the SMILES beside them. No end group written: not given here. pGlu = O=C1CC[C@@H](C(=O)O)N1

Assays:
[1] = molecular target: T1, human GnRH receptor (Homo sapiens, UniProt P30968); test: GnRH analog-stimulated inositol phosphate (IP) accumulation in COS-1 cells transiently transfected with human GnRH receptor; assay type: cell-based
T1 construct: expressed in transfected cells; host or cells: COS-1 cells, transient transfection (DEAE-Dextran), vector pcDNA I/AMP
T1 sequence (P30968 1-328): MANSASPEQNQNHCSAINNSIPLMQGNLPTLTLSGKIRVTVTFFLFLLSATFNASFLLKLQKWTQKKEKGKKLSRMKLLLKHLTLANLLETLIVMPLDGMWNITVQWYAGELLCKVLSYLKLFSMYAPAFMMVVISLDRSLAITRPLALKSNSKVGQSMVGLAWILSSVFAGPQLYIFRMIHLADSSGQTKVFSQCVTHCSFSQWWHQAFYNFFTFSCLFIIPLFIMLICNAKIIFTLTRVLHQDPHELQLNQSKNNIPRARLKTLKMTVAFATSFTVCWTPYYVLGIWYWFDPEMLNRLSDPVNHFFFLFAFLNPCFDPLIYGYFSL
Experimental: COS-1 cells were cultured in Dulbecco's modified Eagle's medium/DMEM (Life Technologies, Inc., Paisley, Scotland), supplemented with 10% foetal calf serum (FCS, Delta bioproducts, Kempton Park, South Africa) in a 10% CO2 incubator at 37° C. Cells were harvested with 0.05% trypsin. For all transient transfections 2×10^5 cells/well were seeded into 12-well plates and cultured overnight in DMEM containing 10% FCS and antibiotics (2 mg/ml streptomycin sulphate, 4000 U/ml sodium benzyl penicillin). COS-1 cells were transiently transfected using the DEAE-Dextran method, as previously described.
The transfected COS-1 cells (2×10^5 cells/well) were incubated overnight in 0.5 ml Medium 199 (Life Technologies Inc.) with antibiotics and myo-[2-^3H] inositol (1 μCi/well, Amersham Pharmacia Biotech) as previously described. […] Aspirating the medium and addition of 10 mM formic acid (1 ml/well) terminated the incubation. Inositol phosphates separated from the formic acid extract on DOWEX-1 ion exchange columns and eluted into scintillation liquid (Quicksafe, Zinsser Analytical, Frankfurt, Germany) and the radioactivity was counted.
IP assays were performed in duplicate and four-parameter nonlinear curve fitting (PRISM, GraphPad Software, In., San Diego, Calif.) was used to estimate the peptide concentrations required to stimulate half-maximal IP production (EC50). […]

[2] = tested on: purified rabbit anti-RI-GnRH antibodies; test: Inhibition immunoassay (ELISA): peptide displacement of anti-RI-GnRH antibodies from fixed RI-GnRH; assay type: binding; settings: for inhibition by free peptide of anti-RI-GnRH antibody binding to fixed RI-GnRH: ELISA, increasing peptide concentrations
Experimental: (§1) Microtitre plates were coated with RI-GnRH peptide (5 μg/ml) in 100 mM Na2CO3 (pH=9.6) and incubated for one hour at 37° C. After several washes with PBS (pH=7.4) plates were saturated for one hour with 1% BSA in PBS supplemented with Tween 20 (0.1% wt/volume) at 37° C. Sera from immunised rabbits and mice at different dilutions (1:500 to 1:3200) were added to the plates and incubated for one hour at 37° C. […] Washed plates were reacted with 3,3′,5,5′-tetramethyl benzidine (TMB) and […] as substrate.
(§2) Nonspecific inhibition was determined with an unrelated L peptide, […](V9C), and an unrelated RI peptide ([…]. Various dilutions of anti-RI-GnRH antibodies were preincubated with increasing concentrations of peptide (3.9-1000 nM) for 1 h at 37° C. The percent inhibition of signal was calculated from the amount of anti-RI-GnRH antibodies that bound RI-GnRH in the presence of increasing peptide concentrations against the amount of anti-RI-GnRH antibodies that bound RI-GnRH in the absence of competing peptide.

[3] = tested on: male BALB/c mice; assay type: in vivo, mouse
Experimental: Nine male BALB/c mice (Janvier, France), nine weeks of age, were immunised intraperitoneally (i.p.) with either 25 μg/mouse RI-GnRH conjugated with MAO (n=5) or saline buffer (n=4). The primary injections were given in CFA supplemented with 200 μg m-BSA. These were followed by two-booster injections in IFA and m-BSA at day 15 and 45 after primary injection. The mice were weighed and bled one week after each immunisation. On day 45, males injected with RI-GnRH conjugate or saline were placed with females of proven fertility and litters observed. The males were sacrificed 75 days after primary injection for histological examination.
as §1, §2
Male mice were sacrificed and the testes dissected. Testes were weighed and fixed in formalin/saline solution (12%) for routine histology. The fixed testes were dehydrated, sectioned (5 μm thick) and stained with haematoxylin and eosin.

[4] = tested on: rabbits; test: Rabbit immunisation with RI-GnRH conjugated with MAO; assay type: in vivo; settings: 100 μg/rabbit conjugated with MAO, CFA then IFA boosters
Experimental: Two adult female rabbits (Harlan, Leicestershire, UK) were immunised with RI-GnRH (100 μg/rabbit) conjugated with MAO. The primary injections were given subcutaneously in complete Freund's adjuvant (CFA). These were followed by three booster injections (1 ml/rabbit) in incomplete Freund's adjuvant (IFA) at two week intervals. The last booster injection was given four weeks later using 200 μg free peptide together with 1 mg methylated-BSA (m-BSA). The rabbits were bled one week after each injection. Two experiments were performed with mice to test whether immunization with RI-GnRH would generate GnRH antibodies, and different methods of immunization with RI-GnRH were tested.
as §1

[5] = tested on: BALB/c mice; test: Second mice example: immunisation of BALB/c mice with unconjugated RI-GnRH coinjected with CpG, titre and fertility; assay type: in vivo, mouse; settings: for Titre 1 (d 37): individual mice 1-6, without complete Freund's adjuvant
Experimental: In the second experiment, four week old BALB/c mice (3 of each sex) were immunised with 25 μg/mouse unconjugated RI-GnRH coinjected with CpG (50 μg/mouse) oligonucleotide and m-BSA. A control group (2 of each sex) received saline buffer together with 50 μg/mouse CpG oligonucleotide as adjuvant (Klinman, et al., 1999) supplemented with 200 μg m-BSA. All injections were given in 10% v/v IFA. Mice were immunised at days 1, 15 and 30. They were bled and mated with partners of proven fertility at day 37 after the initial immunisation.
as §1

[6] = molecular target: T2, GnRH (Homo sapiens, UniProt P01148); test: Antiserum/antibody inhibition of GnRH stimulated IP accumulation in COS-1 cells transfected with human GnRH receptor; assay type: cell-based, mammalian
T2 construct: made in house; host or cells: chemical solid-phase synthesis (University of Cape Town); receptor expressed in transfected COS-1 cells
Experimental: (§3) The transfected COS-1 cells (2×10^5 cells/well) were incubated overnight in 0.5 ml Medium 199 (Life Technologies Inc.) with antibiotics and myo-[2-^3H] inositol (1 μCi/well, Amersham Pharmacia Biotech) as previously described. The labelled cells were incubated with various concentrations of GnRH-analogs for one hour at 37° C. in the presence of LiCl as described. Aspirating the medium and addition of 10 mM formic acid (1 ml/well) terminated the incubation. Inositol phosphates separated from the formic acid extract on DOWEX-1 ion exchange columns and eluted into scintillation liquid (Quicksafe, Zinsser Analytical, Frankfurt, Germany) and the radioactivity was counted. […] Serum from the same rabbits before immunisation was also tested. […] After one hour the incubation was terminated with formic acid and inositol phosphates were separated and counted as described. […] The mixture was added to labelled cells, and the inhibition of IP production was calculated. […] Purified anti-RI-GnRH antibodies were tested for their ability to discriminate among GnRH, [[…]]GnRH, and GnRH II. […] Stimulating with these concentrations [half-maximal effective concentrations (EC50)] in the absence of antibody produced similar levels of IP counts. […] The mixture was added to labelled cells and the inhibition of IP production calculated as described. IP assays were performed in duplicate and four-parameter nonlinear curve fitting (PRISM, GraphPad Software, In., San Diego, Calif.) was used to estimate the peptide concentrations required to stimulate half-maximal IP production (EC50). […] All kinetic analysis was performed with BiaEvaluation 3 (BIACORE) software, using the standard χ^2 statistic test. […] All statistical analyses were performed with StatView, using a standard correlation program.

[7] = tested on: GnRH; test: as above; assay type: cell-based, mammalian; settings: 5 nM antibody fraction; 0.3 nM GnRH, 1 nM [Gln^8]GnRH, 1 nM GnRH II
Experimental: as §3

[8] = tested on: RI-GnRH peptide; test: ELISA binding of purified anti-RI-GnRH antibody fractions to RI-GnRH; settings: ELISA titre
Experimental: as §1

EC50 ([1]; absence of antibody, read-out: EC50 of ligand-stimulated IP accumulation): 1 nM
inhibition by free peptide of anti-RI-GnRH antibody binding to fixed RI-GnRH [2]: cross-react less
Molecule: NC(=O)CNC(=O)[C@@H]1CCCN1C(=O)[C@H](Cc1ccc(O)cc1)NC(=O)[C@H](Cc1c[nH]c2ccccc12)NC(=O)CNC(=O)[C@H](Cc1c[nH]cn1)NC(=O)[C@H](CO)NC(=O)[C@H](Cc1c[nH]c2ccccc12)NC(=O)[C@H](Cc1c[nH]cn1)NC(=O)[C@@H]1CCC(=O)N1 [GnRH II, [His^5, Trp^7, Tyr^8]GnRH, reference compound] ([pGlu]HWSHGWYPG-NH2)

inhibition by free peptide of anti-RI-GnRH antibody binding to fixed RI-GnRH [2]: could also inhibit
Molecule: CC(C)C[C@H](NC(=O)CNC(=O)[C@H](Cc1ccc(O)cc1)NC(=O)[C@H](CO)NC(=O)[C@H](Cc1c[nH]c2ccccc12)NC(=O)[C@H](Cc1c[nH]cn1)NC(=O)[C@@H]1CCC(=O)N1)C(=O)N[C@@H](CCCNC(=N)N)C(=O)N1CCC[C@H]1C(=O)NCC(N)=O [GnRH]

inhibition by free peptide of anti-RI-GnRH antibody binding to fixed RI-GnRH [2]: incrementally decreased
Molecule: GPRLGYSWHEC (G[dP][dR][dL]G[dY][dS][dW][dH][dE][dC]; not fully specified) [RI-GnRH, retro-inverso GnRH peptide with additional C-terminal cysteine for conjugation]
development of anti-RI-GnRH antibodies ([3]; 25 μg/mouse conjugated with MAO, i.p., CFA + m-BSA): All five immunised male mice developed anti-RI-GnRH antibodies
testis histology ([3]; males sacrificed 75 days after primary injection): atrophied Leydig and Sertoli cells, less spermatogonia and primary spermatocytes, presence of very few spermatids and reduced diameters of the seminiferous tubules
infertile immunised male mice ([3]; mated with normal females from day 45): Two of the group of five
adverse side effects or changes in body weight ([3]; mouse, in vivo): no indication of adverse side effects or changes in body weight
testis weight ([3]; mouse, in vivo): reduced testis weight
effect of RI-GnRH peptide alone on IP accumulation / GnRH stimulated IP accumulation ([1]; data not shown, listed as RI-GnRH peptide): could not stimulate or inhibit; also recorded: did not stimulate or inhibit
anti-RI-GnRH antibody response [4]: high titre
production of anti-RI-GnRH antibodies ([5]; 25 μg/mouse unconjugated RI-GnRH with CpG 50 μg/mouse, m-BSA, 10% IFA): produced anti-RI-GnRH antibodies, which cross-reacted with the native hormone
mice infertile until day 220 ([5]; boosted at day 97): four mice stayed infertile
infertile mice on day 120 ([5]; boosted at day 97, mated one week thereafter): Two mice were infertile
Titre 1 (d 37) ([5]; female mice): 3.00E−05 and 1.30E−04 and 1.00E−02
Titre 1 (d 37) ([5]; male mice): 3.00E−05 and 1.00E−03 and 5.00E−04
fertility after pairing at day 37 ([5]; male and female mice paired with normal partners): All mice were infertile after pairing at day 37, except for one
adverse side effects or changes in body weight ([5]; mouse, in vivo): no indication of adverse side effects or changes in body weight
litters from further matings up to day 90 ([5]; mouse, in vivo): no litters

IC50 ([6]; 0.3 nM GnRH, read-out: antibody concentration inhibiting 50% of GnRH-stimulated IP accumulation): 1.7 nM
cross-reaction of eluted antibody fractions with GnRH ([2]; inhibition ELISA): cross-reacted most efficiently
Molecule: KSCN
inhibition of GnRH (analog) stimulated IP production by eluted antibody fractions [7]: most effective

Molecule: VRTVEDGEC [V9C, unrelated L peptide]
inhibition by free peptide of anti-RI-GnRH antibody binding to fixed RI-GnRH [2]: not significantly inhibited; also recorded: low inhibition

fold suppression of EC50 of GnRH-stimulated IP accumulation ([6]; 5 nM antibody fraction): 4.4 fold
Molecule: glycine
affinity of antibody populations for RI-GnRH peptide [8]: higher affinity than those eluted with KSCN
